Measurements as given in patent US10934277B2, “Enantiomerically purified GPER agonist for use in treating disease states and conditions” (Linnaeus Therapeutics, Inc., priority 2018, dated 2021).
≈ marks a conversion by molar mass, not a printed value. Where “and” joins values, the source holds several entries; their conditions need not be identical. Equal entries are not always repeated. Each block holds one molecule with its values, some of them ahead of it.

Assays:
YUMM1.7 melanoma cells = assay: YUMM1.7 proliferation assay (4 day growth); assay type: cell-based; conditions: 500 nM
Procedure: YUMM1.7 cells were cultured for at least 1 passage after thawing and were cultured in DMEM with 5% FBS (Invitrogen) and 1% antibiotic-antimycotic (gibco) at 37C 5% CO2. Proliferation assays were performed by plating 15,000 cells in 12-well plates with 5 replicates per condition tested. Media and drugs were refreshed on Day 2. On Day 4, cells were trypsinized using 0.25 ml 0.05% Trypsin with EDTA (Invitrogen) for 5 minutes to detach from the plate, mixed with 0.75 ml of culture media, and counted using a hemocytometer.
Starting cell numbers were 15,000.

[1] = Physical stability of amorphous material; assay type: physicochemical
Procedure: Amorphous material crystallized to Form A upon exposure to either elevated temperature (within 4 days at 60° C.) or humidity (within 12 days at 75% RH).

[2] = Physical stability of Form B (desolvation); assay type: physicochemical
Procedure: The physical stability of Form B was investigated. […] Vacuum at 70° C.

[3] = Plasma concentration of SRR G-1 in rats after oral dosing (LC-MS/MS); assay type: in vivo; conditions: rat, PO 10 mg/kg, individual animals (R1-R9)
Text: The results are shown in Tables 22-24 for each respectively.

[4] = Disproportionation of salts in water slurry; assay type: physicochemical
Text: The possibility of disproportionation in water was investigated. […] The excess solids were recovered and reanalyzed by XRPD for evidence of freebase or benzenesulfonic acid.
The possibility of disproportionation in water was investigated. […] The excess solids were recovered and reanalyzed by XRPD for evidence of freebase or naphthalene-2-sulfonic acid.

[5] = Approximate solubility of SRR G-1 Form A in solvents; assay type: physicochemical
[6] = Dynamic Vapor Sorption/Desorption (DVS); assay type: physicochemical
Text: The weight change through the sorption/desorption cycle was less than 0.3% weight. Hysteresis was not observed. The material recovered from the Dynamic Vapor Sorption experiment was Form A by XRPD.
Moisture sorption/desorption data were collected on a VTI SGA-100 Vapor Sorption Analyzer. NaCl and PVP were used as calibration standards. Samples were not dried prior to analysis. Sorption and desorption data were collected over a range from 5% to 95% RH at 10% RH increments under a nitrogen purge. The equilibrium criterion used for analysis was less than 0.0100% weight change in 5 minutes with a maximum equilibration time of 3 hours. Data were not corrected for the initial moisture content of the samples.

[7] = Solubility measurement in pH buffers; assay type: physicochemical; conditions: 37° C., 24 hrs; for solubility at 24 h: aqueous buffer, thermodynamic from solid, read-out: Solubility; for Form Conversion: XRPD of residual solids
[8] = Kinetic solubility measurement in bio-relevant media; assay type: physicochemical; conditions: 37° C.; for Form Change: SGF; for solubility at 1 h / solubility at 2 h / solubility at 4 h / solubility at 24 h: thermodynamic from solid

Structure (SMILES): CC(=O)c1ccc2c(c1)[C@@H]1C=CC[C@@H]1[C@H](c1cc3c(cc1Br)OCO3)N2 (racemic) [Racemic G-1, (±)1-(4-(6-bromobenzo[d][1,3]dioxol-5-yl)-(3 aS*,4R*,9bR*)-tetrahydro-3H-cyclopenta[c]quinolin-8-yl)ethan-1-one, reference compound]
- doubling compared with that seen with the vehicle (YUMM1.7 melanoma cells; 4 days): about half
- Doublings (YUMM1.7 melanoma cells; 4 days, starting cell number 15,000): 3.4
- cell count after 4 days of growth (single replicates) (YUMM1.7 melanoma cells; starting cell number 15,000, 5 replicates): 16 tens of thousands and 18 tens of thousands and 19 tens of thousands and 17 tens of thousands and 24 tens of thousands
- average cell count after 4 days of growth (YUMM1.7 melanoma cells; starting cell number 15,000, average of 5 replicates): 18.8 tens of thousands

Structure (SMILES): CC(=O)c1ccc2c(c1)[C@@H]1C=CC[C@@H]1[C@H](c1cc3c(cc1Br)OCO3)N2 [Amorphous material]
- time to crystallization to Form A ([1]; elevated temperature, 60° C.): ≤ 4 days
- time to crystallization to Form A ([1]; humidity, 75% RH): ≤ 12 days

Structure (SMILES): CC(=O)c1ccc2c(c1)[C@@H]1C=CC[C@@H]1[C@H](c1cc3c(cc1Br)OCO3)N2 [Form B, 1-((3aS,4R,9bR)-4-(6-bromobenzo[d][1,3]dioxol-5-yl)-3a,4,5,9b-tetrahydro-3H-cyclopenta[c]quinolin-8-yl)ethan-1-one]
- desolvation ([2]; exposure to 90 to 100° C. for 25 minutes): Almost complete desolvation
- desolvation ([2]; exposure to 120° C.): Complete desolvation to Form C
- desolvation ([2]; vacuum at 70° C. (or below)): not sufficient for desolvation to occur

More lines, main results first:

- Plasma Conc. ([3]; time 0.500 h): 39.2 ng/mL and 35.2 ng/mL and 34.1 ng/mL
- Plasma Conc. ([3]; time 1.00 h): 43.9 ng/mL and 42.0 ng/mL and 44.5 ng/mL
- Plasma Conc. ([3]; time 2.00 h): 28.5 ng/mL and 30.6 ng/mL and 32.3 ng/mL
- Plasma Conc. ([3]; time 4.00 h): 20.0 ng/mL and 16.7 ng/mL and 19.5 ng/mL
- Plasma Conc. ([3]; time 8.00 h): 8.17 ng/mL and 5.78 ng/mL and 6.18 ng/mL
- disproportionation in water ([4]; slurried in water for 4 days, XRPD of recovered solids): disproportionation did not occur
Structure (SMILES): CC(=O)c1ccc2c(c1)[C@@H]1C=CC[C@@H]1[C@H](c1cc3c(cc1Br)OCO3)N2.O=S(=O)(O)c1ccccc1 [SRR G-1 Besylate Form A]
- Plasma Conc. ([3]; time 24.0 h, LLOQ 0.100 ng/mL): 0.837 ng/mL and 0.668 ng/mL and 0.647 ng/mL

- solubility ([5]; oil or lipid, sesame oil): 2000 µg/mL (≈ 4850 µM)
- solubility ([5]; organic solvent or mixture, ACN): 24000 µg/mL (≈ 58200 µM)
- solubility ([5]; organic solvent or mixture, DCM): > 89000 µg/mL
- solubility ([5]; organic solvent or mixture, DMSO): > 203000 µg/mL
- solubility ([5]; organic solvent or mixture, EtOAc): > 65000 µg/mL
- solubility ([5]; organic solvent or mixture, EtOH): 7000 µg/mL (≈ 17000 µM)
- solubility ([5]; organic solvent or mixture, IPA): 4000 µg/mL (≈ 9700 µM)
- solubility ([5]; organic solvent or mixture, MeOH): 6000 µg/mL (≈ 14600 µM)
- solubility ([5]; organic solvent or mixture, THF): > 67000 µg/mL
- solubility ([5]; organic solvent or mixture, acetone): > 122000 µg/mL
- solubility ([5]; organic solvent or mixture, diethyl ether): 8000 µg/mL (≈ 19400 µM)
- solubility ([5]; organic solvent or mixture, toluene): 40000 µg/mL (≈ 97000 µM)
- solubility ([5]; water): < 2000 µg/mL
- hygroscopicity ([6]; DVS isotherm): low hygroscopicity
- weight change through the sorption/desorption cycle ([6]; DVS, 5% to 95% RH): less than 0.3 % weight
- solubility at 24 h ([7]; pH 2.0 buffer): < 0.72 µg/mL
- solubility at 24 h ([7]; pH 3.0 buffer): < 0.72 µg/mL
- solubility at 24 h ([7]; pH 4.0 buffer): < 0.72 µg/mL
- solubility at 24 h ([7]; pH 5.0 buffer): < 0.72 µg/mL
- solubility at 24 h ([7]; pH 6.0 buffer): < 0.72 µg/mL
- solubility at 24 h ([7]; pH 7.0 buffer): < 0.72 µg/mL
- solubility at 24 h ([7]; pH 8.0 buffer): < 0.72 µg/mL
- Form Conversion ([7]; pH 2.0 buffer): No
- Form Conversion ([7]; pH 3.0 buffer): No
- Form Conversion ([7]; pH 4.0 buffer): No
- Form Conversion ([7]; pH 5.0 buffer): No
- Form Conversion ([7]; pH 6.0 buffer): No
- Form Conversion ([7]; pH 7.0 buffer): No
- Form Conversion ([7]; pH 8.0 buffer): No
- FC (Form Change) ([8]; FaSSIF, 1 h): No
- FC (Form Change) ([8]; FaSSIF, 2 h): No
- FC (Form Change) ([8]; FaSSIF, 4 h): No
- FC (Form Change) ([8]; FaSSIF, 24 h): No
- FC (Form Change) ([8]; FeSSIF, 1 h): No
- FC (Form Change) ([8]; FeSSIF, 2 h): No
- FC (Form Change) ([8]; FeSSIF, 4 h): No
- FC (Form Change) ([8]; FeSSIF, 24 h): No
- Form Change ([8]; 1 h): No
- Form Change ([8]; 2 h): No
- Form Change ([8]; 4 h): No
- Form Change ([8]; 24 h): No
- solubility at 1 h ([8]; simulated gastric fluid, SGF (pH 1.8), 1 h): 5.9 µg/mL (≈ 14.3 µM)
- solubility at 2 h ([8]; simulated gastric fluid, SGF (pH 1.8), 2 h): 6.2 µg/mL (≈ 15 µM)
- solubility at 4 h ([8]; simulated gastric fluid, SGF (pH 1.8), 4 h): 6.6 µg/mL (≈ 16 µM)
- solubility at 24 h ([8]; simulated gastric fluid, SGF (pH 1.8), 24 h): 5.7 µg/mL (≈ 13.8 µM)
- solubility at 1 h ([8]; FaSSIF (pH 6.5), 1 h): 7.1 µg/mL (≈ 17.2 µM)
- solubility at 2 h ([8]; FaSSIF (pH 6.5), 2 h): 6.8 µg/mL (≈ 16.5 µM)
- solubility at 4 h ([8]; FaSSIF (pH 6.5), 4 h): 7.1 µg/mL (≈ 17.2 µM)
- solubility at 24 h ([8]; FaSSIF (pH 6.5), 24 h): 7.3 µg/mL (≈ 17.7 µM)
- solubility at 1 h ([8]; FeSSIF (pH 5.0), 1 h): 36 µg/mL (≈ 87.3 µM)
- solubility at 2 h ([8]; FeSSIF (pH 5.0), 2 h): 37 µg/mL (≈ 89.7 µM)
- solubility at 4 h ([8]; FeSSIF (pH 5.0), 4 h): 38 µg/mL (≈ 92.2 µM)
- solubility at 24 h ([8]; FeSSIF (pH 5.0), 24 h): 37 µg/mL (≈ 89.7 µM)
Structure (SMILES): CC(=O)c1ccc2c(c1)[C@@H]1C=CC[C@@H]1[C@H](c1cc3c(cc1Br)OCO3)N2 [SRR G-1 Form A, 1-((3aS,4R,9bR)-4-(6-bromobenzo[d][1,3]dioxol-5-yl)-3a,4,5,9b-tetrahydro-3H-cyclopenta[c]quinolin-8-yl)ethan-1-one]

- Plasma Conc. ([3]; time 0.500 h): 62.2 ng/mL and 50.6 ng/mL and 22.6 ng/mL
- Plasma Conc. ([3]; time 1.00 h): 81.9 ng/mL and 67.5 ng/mL and 33.2 ng/mL
- Plasma Conc. ([3]; time 2.00 h): 46.6 ng/mL and 39.9 ng/mL and 24.3 ng/mL
- Plasma Conc. ([3]; time 4.00 h): 14.6 ng/mL and 14.0 ng/mL and 15.6 ng/mL
- Plasma Conc. ([3]; time 8.00 h): 5.45 ng/mL and 6.09 ng/mL and 3.97 ng/mL
- disproportionation in water ([4]; slurried in water for 5 days, XRPD of recovered solids (freebase Form A recovered)): disproportionation occurred
Structure (SMILES): CC(=O)c1ccc2c(c1)[C@@H]1C=CC[C@@H]1[C@H](c1cc3c(cc1Br)OCO3)N2.O=S(=O)(O)c1ccc2ccccc2c1 [SRR G-1 Napsylate Form A]
- Plasma Conc. ([3]; time 24.0 h, LLOQ 0.100 ng/mL): 0.641 ng/mL and 0.558 ng/mL and 0.435 ng/mL
